# Laboratory results published in patent publication US11584728B2, “Compositions and methods for the prevention and/or treatment of mitochondrial disease, including Friedreich's ataxia” (STEALTH BIOTHERAPEUTICS INC., priority 2019, dated 2023).
# pEC50: −log10 of the molar value. Like-named read-outs stand apart in the source and are kept apart here.
# Columns and labels:
# [1] = tested on: frataxin deficient fibroblasts (GM03665); experiment: Frataxin Deficient Fibroblast Viability Assay (BSO Assay); details: Homo sapiens, 48 h; for pEC50: read-out: BSO Assay; for EC50: read-out: EC50 (nM) BSO Assay
# Nrf-2 = Nrf-2 Activation Assay (Nrf-2 Assay); type: cell-based, human; details: Table 7; GM03665 fibroblasts, 1 μM, 24 hours, qPCR of Nrf-2 responsive genes
# Experimental: Example 21: Nrf-2 Activation Assay (Nrf-2 Assay)
# This assay was developed internally and was designed to determine if the novel test compounds disclosed herein active Nrf-2 and thereby promote resolution of inflammation by the mechanism believed to be responsible for the activity of omaveloxolone.
# Briefly, GM03665 Friedreich Ataxia patient fibroblasts were grown in 12 Well Plates (TC Cell+F) (Sarstedt, Nümbrecht Germany), at a density of 12×10^4 cells/per well in DMEM/F12 (Gibco, ThermoFisher Scientific, Waltham, Mass., USA) cell media supplemented with 10% FBS and 1% Pen/Strep. Cells were left to rest overnight at 37° C. in a humidified atmosphere with 5% CO2 to allow attachment of the cells to the culture plate. Before continuing assay visual inspection of each well was done by light microscopy to detect any possible bacterial and fungal contamination. […] After incubation, cell media was removed and total RNA from the cells was isolated using E.Z.N.A.® Total RNA Kit I (Omega Bio-tek, Norcross, Ga., USA) spin columns, and first-strand cDNA synthesis was carried out using a High Capacity cDNA Reverse Transcription Kit (Applied Biosystems™, Foster City, Calif.) following the manufacturer's instructions. qPCR analysis of gene expression was performed by mixing SYBR® Green Master Mix (Applied Biosystems™) with synthesized cDNA and forward and reverse primers. […] (60 cycles), and 95° C. for 60 seconds, followed by melt curve analysis at 72-95° C., 0.3° C./sec. The relative expression levels for each gene were calculated with the ΔΔCt method and normalized to the expression of REEP5 and SNRPD3 genes.
# [2] = tested on: HepG2 human hepatocarcinoma cells; experiment: Rotenone ATP-Assay (Complex I by-pass); type: cell-based; details: for pEC50: Homo sapiens, 1 h
# Experimental: Example 18: Rotenone ATP-Assay
# Introduction: • This assay has been adapted from Haefeli R H, Erb M, Gemperli A C, Robay D, Courdier Fruh I, et al. (2011) NQO1-Dependent Redox Cycling of Idebenone: Effects on Cellular Redox Potential and Energy Levels. PLoS ONE 6(3): e17963. HepG2 human hepatocarcinoma cells were co-incubated with the electron transport chain Complex I toxin rotenone +/−compounds of interest and the corresponding effect on ATP synthesis was measured with a bioluminescent substrate.
# Assay Experimental: • In brief, HepG2 cells were plated at 25,000 cells per well in low glucose (1 gram/Liter) DMEM medium +10% fetal calf serum and incubated for 24 hours. The following day, the media was decanted and subsequently replaced with glucose free/serum free DMEM which has been supplemented with 50 micromolar rotenone and compound of interest. Serial dilutions of compound were prepared in 3× dilutions beginning at 25 micromolar. The cells were incubated for 60 minutes in a humidified tissue culture incubator. Following incubation, ATP levels were quantified via bioluminescent assay (Promega […]) and readings were captured on a standard microplate reader.
# Calculations: • ATP bioluminescence is plotted versus the log of compound of interest and data were used to generate EC50 values. Curve fitting was performed using a sigmoidal dose response curve fit function (GraphPad Prism software).
# Robustness of curve fit was assessed as a quality control measure, with an R squared value of at least 0.80 being required for a successful curve fit. Compounds of interest showing an increase in ATP bioluminescence relative to vehicle control were verified in an independent biological replicate of n=3 technical replicates per dose.
# Discussion: • This assay is a direct measure of the ability of compounds of interest to restore ATP production under conditions of inhibition of Complex I of the mitochondrial electron transport chain. As the majority of ATP produced via the electron transport chain is thought to derive from Complex I activity, significant impairment in Complex I function has dire biological consequences. Of note, Complex I mutations are thought to drive pathophysiology in multiple mitochondrial diseases, including Leigh syndrome and Leber's Hereditary Optic Neuropathy (LHON), while diminished Complex I activity and the resultant attenuation of ATP production has been shown in neurodegenerative diseases, including Friedreich's Ataxia, Parkinson's Disease and Huntington's Disease.
# lipoxygenase-15 enzyme = lipoxygenase-15 enzyme (Glycine max (Soybean) (Glycine hispida), UniProt P08170); experiment: Lipoxygenase-15 Assay (LO-15-Assay); type: biochemical; details: reduced (hydroquinone) form
# GM03665 cells = experiment: RSL3 Toxicity Assay (RSL3 Assay); type: cell-based, human; details: for EC50 / pEC50: Homo sapiens, GM03665 cells, RSL3 2 μM, 24 hours, MTT; for EC50: Table 3, mean of at least three measurements, nM printed in Table 7, read-out: RSL3 Assay EC50, Mean; for pEC50: Table 7, read-out: RSL3 Assay EC50
# Experimental: Example 19: RSL3 Toxicity Assay (RSL3 Assay)
# In brief, GM03665 cells (Coriell Institute) were seeded in 96-well plates (Sarstedt) in DMEM cell culture media containing 10% Fetal Bovine serum and 1% Penicillin-Streptomycin (Pen-Strep) antibiotic mix at the amount of 2×10^4/mL (100 μL or 2×10^3 cells per well). Cells were left to rest overnight at 37° C. in a humidified atmosphere with 5% CO2 to allow attachment of the cells to the culture plate. Test compounds were prepared as DMSO stocks (10 mM) and were serially diluted in cell culture media to obtain 2× working solutions. Cell media was discarded and replaced by 50 μL of test compound solutions or cell media with vehicle for control wells. Within 15 minutes, 2× working solution (4 μM) of 1S,3R-RSL3 (CAS #1219810-16-8, Sigma-Aldrich) (diluted from 5 mM DMSO stock in cell culture media) was added. Final reaction volume was 100 μL and final DMSO concentration in reaction was kept below 0.2% (v/v) and equal in all wells. Final RSL3 concentration was 2 μM and test compound final concentrations in reaction were up to 1000 nM. After 24 hours of incubation cell viability was assessed by MTT test. MTT (Sigma-Aldrich) solution 1 mg/mL in 1×PBS (pH=7,4) was prepared 1 hour before the assay and filtered through Filtropur S 0.2 filters (Sarstedt). Cell media with test compounds was discarded and 100 μL of MTT solution was added to cells. The plates were incubated for 2 hours at +37° C. Thereafter, the MTT solution was removed and 100 μL of isopropanol was added to dissolve sediment. Absorption at 570 and 650 nm was measured using Hidex Sense microplate reader.
# intact HepG2 cells = experiment: Rotenone Oxygraph Assay (High-Resolution Respirometry of Intact HepG2 Cells); type: cell-based, human; details: rotenone 1 μM, compound 10 μM; for Percent increase in ATP (Rotenone Oxygraph Assay), Mean: Table 4; for Percent increase in ATP (Rotenone Oxygraph Assay), Mean / Rotenone Oxygraph Assay % Increase: intact HepG2 cells; for Rotenone Oxygraph Assay % Increase: Table 7
# Experimental: Example 20: Rotenone Oxygraph Assay (High-Resolution Respirometry of Intact HepG2 Cells)
# The Oxygraph-2k (O2k, OROBOROS INSTRUMENTS, Austria) was used for measurements of respiration of intact cells. The respirometry was performed in Dulbecco's Modified Eagle Medium (DMEM) high glucose without supplements. All experiments were performed at 37° C.
# HepG2 cells (ATCC collection code HB-8065™) were cultured in 10 cm^2 culture dishes in DMEM high glucose medium supplemented with 10% fetal bovine serum (FBS) and 100 units/mL penicillin and 100 μg/mL streptomycin until approximately 90% confluence was reached. Immediately prior to performing the respirometric assay, the cells were washed with media without FBS, trypsinized and resuspended in DMEM high glucose without FBS.
# The final concentration of intact cells in the O2k-chamber was 0.5·10^6/mL. After stabilization of respiration, the Complex I inhibitor, rotenone, at 1 μM final concentration was added to inhibit electron flux via Complex I. Then, compound to be tested was added at 10 μM final concentration, and the change in respiration rate of intact cells was monitored.
# [3] = HepG2 cells, 50 micromolar rotenone, 60 minutes, ATP bioluminescence, read-out: EC50 Rotenone ATP Assay
# [4] = Table 7, HepG2 cells, 50 micromolar rotenone, 60 minutes, read-out: Rotenone ATP Assay EC50
SMILES,pEC50 [1],EC50 [1],Nrf-2 Assay (Nrf-2),"pEC50 [2, 3]","pEC50 [2, 4]",Activity in both the BSO Assay and the Rotenone ATP Assay (in words) ([2]; circumvent BSO induced cell death and restore ATP production when Complex I is inhibited),Activity in the LO-15 assay (in words) (lipoxygenase-15 enzyme),EC50 (GM03665 cells),pEC50 (GM03665 cells),Activity in the RSL3 assay (in words) (GM03665 cells; protection of Friedreich's ataxia fibroblasts from RSL3),"Percent increase in ATP (Rotenone Oxygraph Assay), Mean (intact HepG2 cells)",Rotenone Oxygraph Assay % Increase (intact HepG2 cells),"Rotenone ATP Assay EC50, nM ([2]; Table 7, HepG2 cells, 50 micromolar rotenone, 60 minutes)","Activity in the Rotenone Oxygraph assay, Complex I by-pass (in words) (intact HepG2 cells)"
"CC1=C(C)C(=O)C(CC[C@](C)(O)CC/C=C(\C)CC/C=C(\C)CCC=C2COC2)=C(C)C1=O [Compound E, 2-((R,6E,10E)-3-hydroxy-3,7,11-trimethyl-14-(oxetan-3-ylidene)tetradeca-6,10-dien-1-yl)-3,5,6-trimethylcyclohexa-2,5-diene-1,4-dione]",7.19,< 100 nM,Inactive,5.52 to 6.00,5.55,possess both activities,outside of the range of the assay,73.2 nM,7.14,–,–,–,–,–
"CC1=C(C)C(=O)C(CC[C@@](C)(O)COCCC[Si](C)(C)C)=C(C)C1=O [Compound M, (R)-2-(3-hydroxy-3-methyl-4-(3-(trimethylsilyl)propoxy)butyl)-3,5,6-trimethylcyclohexa-2,5-diene-1,4-dione]",7.21,–,Inactive,5.52 to 6.00,5.87,–,best result,41.2 nM,7.39,active,56.6 +/− 11.3%,56.6 +/− 11.3%,–,–
"CC(C)=CCC/C(C)=C/CC/C(C)=C/CC[C@@](C)(O)CCC1=C(C)C(=O)C(C)=C(C)C1=O [Vatiquinone, reference compound]",7.35,< 100 nM,–,< 5.52,–,–,–,56 nM,7.25,–,Inactive,Inactive,Inactive,inactive
